This assay deals with HBV. The assay is described as follows: In vitro anti-HBV activity in HepG2.2.15 cell line (intracellular HBV DNA by qPCR at 1 μM). The class given is cell-based. Particulars: Hepatitis B virus, 144 h; HepG2.2.15 cells, 1 μM compound, 6 days, intracellular HBV DNA as percentage compared to vehicle control (0.5% DMSO). The method, then: The stable transfected HBV cell line, called HepG2.2.15 cells was a valuable model with high reproducibility and commonly used for drug screening. To identify the anti-HBV activity, HepG2.2.15 cells were seeded at 5×10^5 cells/well with high glucose Dulbecco's modified Eagle medium (DMEM) containing 10% heat inactivated fetal bovine serum (FBS), 300 mg/L G418, non-essential amino acids (NEAA) 100 units/ml Antibiotic-Antimycotic, and allowed to stand for an overnight in an incubator set at 37° C. and 5% C02. HepG2.2.15 cells in each well were treated with the medium containing a compound (1 μM with 0.5% dimethyl sulfoxide (DMSO final concentration) for three days in the incubator. After that the medium was removed and fresh medium containing the compound was added to the cells for another 3 days. After 6 days of treatment, intracellular HBV DNA was extracted and determined by using quantitative real-time PCR (qPCR) technique with specific primers. Intrahepatic HBV DNA viral load was reported as percentage compared to vehicle control (0.5% DMSO) as shown in Table A.
“B” means % ranging between 80 and 90; “C” means % ranging between 70 and 80; “D” means % ranging between 60 and 70; “E” means % ranging between 45 and 60, “F” means %<45.
(Quantitative PCR measures a nucleic acid by following its amplification.)

As for `O=C(Nc1cc(F)c(F)c(F)c1)[C@H]1CCN(C(=O)c2ccc3c(CNCCO)c[nH]c3c2)C1` [Example 37, (S)-1-(3-(((2-hydroxyethyl)amino)methyl)-1H-indole-6-carbonyl)-N-(3,4,5-trifluorophenyl) pyrrolidine-3-carboxamide], the activity at 1 µM was over 90%.

The compound `CC(=O)c1c[nH]c(C(=O)N2CC[C@H](C(=O)Nc3cc(F)c(F)c(F)c3)C2)c1` [Example 38, (S)-1-(4-acetyl-1H-pyrrole-2-carbonyl)-N-(3,4,5-trifluorophenyl)pyrrolidine-3-carboxamide] showed an activity at 1 µM of over 90%.

For `CC(O)c1c[nH]c(C(=O)N2CC[C@H](C(=O)Nc3cc(F)c(F)c(F)c3)C2)c1` (stereo partly drawn) [Example 39, (3S)-1-(4-(1-hydroxyethyl)-1H-pyrrole-2-carbonyl)-N-(3,4,5-trifluorophenyl)pyrrolidine-3-carboxamide], the activity at 1 µM was in the range of 70 to 80%.

In turn, `N#Cc1c[nH]c(C(=O)N2CC[C@H](C(=O)Nc3ccc(F)c(Cl)c3)C2)c1` [Example 40, (S)—N-(3-chloro-4-fluorophenyl)-1-(4-cyano-1H-pyrrole-2-carbonyl)pyrrolidine-3-carboxamide] registered an activity at 1 µM of over 90%.

With `N#Cc1cc(NC(=O)[C@H]2CCN(C(=O)c3[nH]c4ccccc4c3Cl)C2)ccc1F` [Example 43, (S)-1-(3-chloro-1H-indole-2-carbonyl)-N-(3-cyano-4-fluorophenyl)pyrrolidine-3-carboxamide], the activity at 1 µM lay in the range of 45 to 60%.

For the compound `Cc1ccc(C(=O)N2CC[C@H](C(=O)Nc3cc(F)c(F)c(F)c3)C2)s1` [Example 44, (S)-1-(5-methylthiophene-2-carbonyl)-N-(3,4,5-trifluorophenyl)pyrrolidine-3-carboxamide], the activity at 1 µM fell in the range of 70 to 80%.

Regarding `O=C(Nc1cc(F)c(F)c(F)c1)[C@H]1CCN(C(=O)c2cc3cnccc3[nH]2)C1` [Example 46, (S)-1-(1H-pyrrolo[3,2-c]pyridine-2-carbonyl)-N-(3,4,5-trifluorophenyl)pyrrolidine-3-carboxamide], the activity at 1 µM lay in the range of 60 to 70%.

`O=C(Nc1cc(F)c(F)c(F)c1)[C@H]1CCN(C(=O)c2cc3ccncc3[nH]2)C1` [Example 47, (S)-1-(1H-pyrrolo[2,3-c]pyridine-2-carbonyl)-N-(3,4,5-trifluorophenyl)pyrrolidine-3-carboxamide]: the activity at 1 µM was in the range of 80 to 90%.

In turn, `O=C(Nc1cc(F)c(F)c(F)c1)[C@H]1CCN(C(=O)c2ccc[nH]2)C1` [Example 48, (S)-1-(1H-pyrrole-2-carbonyl)-N-(3,4,5-trifluorophenyl)pyrrolidine-3-carboxamide] displayed an activity at 1 µM of 80 to 90%.

In turn, `O=C(Nc1cc(F)c(F)c(F)c1)[C@H]1CCN(C(=O)c2cc3cc(F)c(F)cc3[nH]2)C1` [Example 49, (S)-1-(5,6-difluoro-1H-indole-2-carbonyl)-N-(3,4,5-trifluorophenyl)pyrrolidine-3-carboxamide] returned an activity at 1 µM of over 90%.

In turn, `N#Cc1ccc(C(=O)N2CC[C@H](C(=O)Nc3cc(F)c(F)c(F)c3)C2)[nH]1` [Example 50, (S)-1-(5-cyano-1H-pyrrole-2-carbonyl)-N-(3,4,5-trifluorophenyl)pyrrolidine-3-carboxamide] came in with an activity at 1 µM of 70 to 80%.

Take `Cc1ccc(C(=O)N2CC[C@H](C(=O)Nc3cc(F)c(F)c(Br)c3)C2)[nH]1` [Example 51, (S)—N-(3-bromo-4,5-difluorophenyl)-1-(5-methyl-1H-pyrrole-2-carbonyl)pyrrolidine-3-carboxamide]: the activity at 1 µM lay within 45 to 60%.

Regarding `O=C(Nc1cc(F)c(F)c(Br)c1)[C@H]1CCN(C(=O)c2cc3cnccc3[nH]2)C1` [Example 53, (S)—N-(3-bromo-4,5-difluorophenyl)-1-(1H-pyrrolo[3,2-c]pyridine-2-carbonyl)pyrrolidine-3-carboxamide], the activity at 1 µM lay in the range of 70 to 80%.

Consider `O=C(Nc1cc(F)c(F)c(F)c1)[C@H]1CCN(C(=O)c2cc3cccnc3[nH]2)C1` [Example 54, (S)-1-(1H-pyrrolo[2,3-b]pyridine-2-carbonyl)-N-(3,4,5-trifluorophenyl)pyrrolidine-3-carboxamide], for which the activity at 1 µM fell in the range of 70 to 80%.

Turning to `Cc1ccc2[nH]c(C(=O)N3CC[C@H](C(=O)Nc4cc(F)c(F)c(F)c4)C3)cc2c1` [Example 55, (S)-1-(5-methyl-1H-indole-2-carbonyl)-N-(3,4,5-trifluorphenyl)pyrrolidine-3-carboxamide], the activity at 1 µM was over 90%.

`O=C(Nc1cc(F)c(F)c(F)c1)[C@H]1CCN(C(=O)c2ccc(CO)[nH]2)C1` [Example 56, (S)-1-(5-(hydroxymethyl)-1H-pyrrole-2-carbonyl)-N-(3,4,5-trifluorophenyl)pyrrolidine-3-carboxamide] came in with an activity at 1 µM of over 90%.

Compound `O=C(Nc1cc(F)c(F)c(F)c1)[C@H]1CCN(C(=O)c2cc3cc(F)ccc3[nH]2)C1` [Example 57, (S)-1-(5-fluoro-1H-indole-2-carbonyl)-N-(3,4,5-trifluorophenyl)pyrrolidine-3-carboxamide] showed an activity at 1 µM of over 90%.

With `Cc1ccc(C(=O)N2CC[C@H](C(=O)Nc3cc(F)c(F)c(Br)c3)[C@@H]2C)[nH]1` [Example 58, (2S,3S)—N-(3-bromo-4,5-difluorophenyl)-2-methyl-1-(5-methyl-1H-pyrrole-2-carbonyl)pyrroline-3-carboxamide], the activity at 1 µM was in the range of 70 to 80%.

As to `O=C(Nc1cc(F)c(F)c(F)c1)[C@H]1CCN(C(=O)c2[nH]c3ncccc3c2Cl)C1` [Example 59, (S)-1-(3-chloro-1H-pyrrolo[2,3-b]pyridine-2-carbonyl)-N-(3,4,5-trifluorophenyl)pyrrolidine-3-carboxamide], the activity at 1 µM fell in the range of 45 to 60%.

Regarding `CC(C)c1ccc(C(=O)N2CC[C@H](C(=O)Nc3cc(F)c(F)c(F)c3)C2)[nH]1` [Example 61, (S)-1-(5-isopropyl-1H-pyrrole-2-carbonyl)-N-(3,4,5-trifluorophenyl)pyrrolidine-3-carboxamide], the activity at 1 µM is 60 to 70%.

Regarding `Cc1ccc(C(=O)N2CC[C@H](C(=O)Nc3cc(F)c(F)c(Cl)c3)C2)[nH]1` [Example 62, (S)—N-(3-chloro-4,5-difluorophenyl)-1-(5-methyl-1H-pyrrole-2-carbonyl)pyrrolidine-3-carboxamide], the activity at 1 µM lay within 45 to 60%.

In the case of `N#Cc1c(C(=O)N2CC[C@H](C(=O)Nc3cc(F)c(F)c(F)c3)C2)[nH]c2ncccc12` [Example 63, (S)-1-(3-cyano-1H-pyrrolo[2,3-b]pyridine-2-carbonyl)-N-(3,4,5-trifluorophenyl)pyrrolidine-3-carboxamide], the activity at 1 µM was in the range of 70 to 80%.

Compound `C[C@H]1[C@@H](C(=O)Nc2cc(F)c(F)c(F)c2)CCN1C(=O)c1cc2ncccc2[nH]1` [Example 64, (2S,3S)-2-methyl-1-(1H-pyrrolo[3,2-b]pyridine-2-carbonyl)-N-(3,4,5-trifluorophenyl) pyrrolidine-3-carboxamide] returned an activity at 1 µM of 70 to 80%.

As to `Cc1ccc(C(=O)N2CC[C@H](C(=O)Nc3ccc(F)c(C#N)c3)[C@@H]2C)[nH]1` [Example 66, (2S,3S)—N-(3-cyano-4-fluorophenyl)-2-methyl-1-(5-methyl-1H-pyrrole-2-carbonyl)pyrrolidine-3-carboxamide], the activity at 1 µM lay within 45 to 60%.

The compound `O=C(Nc1cc(F)c(F)c(F)c1)[C@H]1CCN(C(=O)c2nc3cccnc3[nH]2)C1` [Example 67, (S)-1-(3H-imidazo[4,5-b]pyridine-2-carbonyl)-N-(3,4,5-trifluorophenyl)pyrrolidine-3-carboxamide] returned an activity at 1 µM of 45 to 60%.

For the compound `Cc1cc(NC(=O)[C@H]2CCN(C(=O)c3nc4ccccc4[nH]3)C2)ccc1F` [Example 68, (S)-1-(1H-benzo[d]imidazole-2-carbonyl)-N-(4-fluoro-3-methylphenyl)pyrrolidine-3-carboxamide], the activity at 1 µM was under 45%.

In turn, `O=C(Nc1ccc(F)c(Cl)c1)[C@H]1CCN(C(=O)c2nc3cccnc3[nH]2)C1` [Example 69, (S)—N-(3-chloro-4-fluorophenyl)-1-(3H-imidazo[4,5-b]pyridine-2-carbonyl)pyrrolidine-3-carboxamide] yielded an activity at 1 µM of 70 to 80%.

On to `O=C(NCc1cnc(Cl)s1)[C@H]1CCN(C(=O)c2[nH]c3ccccc3c2Cl)C1` [Example 71, (S)-1-(3-chloro-1H-indole-2-carbonyl)-N-((2-chlorothiazol-5-yl)methyl)pyrrolidine-3-carboxamide], for which the activity at 1 µM was 70 to 80%.

`C[C@H]1[C@@H](C(=O)Nc2cc(F)c(F)c(F)c2)CCN1C(=O)c1[nH]c2ccccc2c1CO` [Example 72, (2S,3S)-1-(3-(hydroxymethyl)-1H-indole-2-carbonyl)-2-methyl-N-(3,4,5-trifluorophenyl)pyrrolidine-3-carboxamide] yielded an activity at 1 µM of 60 to 70%.

In turn, `O=C(Nc1cc(F)c(F)c(F)c1)[C@H]1CCN(C(=O)c2ccc(C3CC3)[nH]2)C1` [Example 73, (S)-1-(5-cyclopropyl-1H-pyrrole-2-carbonyl)-N-(3,4,5-trifluorophenyl)pyrrolidine-3-carboxamide] yielded an activity at 1 µM of 45 to 60%.

As for `N#Cc1cc(NC(=O)[C@H]2CCN(C(=O)c3ccc(-c4cccnc4)[nH]3)C2)ccc1F` [Example 75, (S)—N-(3-cyano-4-fluorophenyl)-1-(5-(pyridin-3-yl)-1H-pyrrole-2-carbonyl)pyrrolidine-3-carboxamide], the activity at 1 µM was 60 to 70%.

The values are drawn from patent US20230391752A1, “PYRROLIDINE-3-CARBOXAMIDE DERIVATIVES AND RELATED USES” (Chulalongkorn University, priority 2020, published 2023).
